The source of these data is patent publication US6552188B2, “Unsymmetrical cyclic diamine compound” (Kowa Co., Ltd., priority 2001, dated 2003).

The assay deals with adhesion of U937 cells to human umbilical venous endothelial cells (HUVEC). Briefly: Inhibitory effect on cell adhesion (fluorescence-labeled U937 adhered to IL-1β- or TNFα-stimulated HUVEC). It is filed as cell-based. The conditions noted are these: compound at 1 μM. Here is the method: (Inhibitory Effect on Cell Adhesion)
This test was conducted by reference to the method of Ross et al. (J. Biol. Chem., 267, 8537-8543 (1992)). More specifically, after human umbilical venous endothelial cells (HUVEC) were cultured on a 48-well plate to confluent growth, IL-1β or TNFα was added thereto. Upon elapsed time of 5 hours after the addition, U937, which is a human monocytic/histocytic cell fluorescence-labeled with PKH2 (product of Dainippon Pharmaceutical Co., Ltd.), was added in a proportion of 1×10^6 cells per well. After the plate was left at rest at room temperature for 1 hour, unadhered U937 was washed out and lysed in 1% Triton X-100 to measure a remaining fluorescence intensity (excitation wavelength: 480 nm; measuring wavelength: 530 nm). HUVEC and U937 were cultured in EGM-2 (product of Sanko Junyaku K.K.) and 10% FCS-containing RPMI1640, respectively. Each test agent was added to HUVEC upon the addition of IL-1β or TNFα and to U937 24 hours prior to the cell adhesion test. The inhibitory activity was calculated out according to the equation [100−(C−B)/(A−B)×100(%)], wherein A is the number of U937 cells adhered to HUVEC stimulated by IL-1β or TNFα when no test agent was added, B is the number of U937 cells adhered to HUVEC not stimulated by IL-1β or TNFα when no test agent was added, and C is the number of U937 cells adhered to HUVEC stimulated by IL-1β or TNFα when the test agent was added. As control compounds, Test Compound 1 described in Japanese Patent Application Laid-Open No. 9-143075 and dilazep described in Japanese Patent Application Laid-Open No. 11-92382 were simultaneously evaluated.

[1] abbreviates: U937 adhesion to HUVEC stimulated by IL-1β, read-out: Percent inhibition (%) Stimulation by IL-1β.
The mark [2] stands for this setting: U937 adhesion to HUVEC stimulated by TNFα, read-out: Percent inhibition (%) Stimulation by TNFα.

Like-named read-outs stand apart in the source and are kept apart here.

For the compound `COc1cc(C(=O)OCCCN2CCCN(CCCOC(=O)c3cc(OC)c(OC)c(OC)c3)CC2)cc(OC)c1OC` [Dilazep, dilazep, reference compound], the inhibition at 1 µM under setting [1] worked out at 0% and the inhibition at 1 µM under setting [2] was found to be 12%.

`COc1cc(-c2cccc(CN3CCN(Cc4ccnc(-c5cc(OC)c(OC)c(OC)c5)c4)CC3)c2)cc(OC)c1OC` [Example 18, N-[3-(3,4,5-trimethoxyphenyl)benzyl]-N′-[[2-(3,4,5-trimethoxyphenyl)pyridin-4-yl]methyl]piperazine difumarate]: the inhibition at 1 µM came out at 37% under setting [1] and 54% under setting [2].

For the compound `COc1cc(-c2cccc(CN3CCCN(Cc4ccnc(-c5cc(OC)c(OC)c(OC)c5)c4)CC3)c2)cc(OC)c1OC` [Example 19, N-[3-(3,4,5-trimethoxyphenyl)benzyl]-N′-[[2-(3,4,5-trimethoxyphenyl)pyridin-4-yl]methyl]homopiperazine difumarate], the inhibition at 1 µM was determined as 33% under setting [1] and 58% under setting [2].

Take `COc1cc(-c2cc(CN3CCN(Cc4ccnc(-c5ccccc5)c4)CC3)ccn2)cc(OC)c1OC` [Example 21, N-[(2-phenylpyridin-4-yl)methyl]-N′-[[2-(3,4,5-trimethoxyphenyl)pyridin-4-yl]methyl]piperazine difumarate]: the inhibition at 1 µM runs as follows: under setting [1], 44%; under setting [2], 60%.

As to `COc1ccc(-c2cc(CN3CCN(Cc4ccnc(-c5cc(OC)c(OC)c(OC)c5)c4)CC3)ccn2)cc1` [Example 25, N-[[2-(4-methoxyphenyl)pyridin-4-yl]methyl]-N′-[[2-(3,4,5-trimethoxyphenyl)pyridin-4-yl]methyl]-piperazine difumarate], the inhibition at 1 µM is, setting by setting: under setting [1], 78%; under setting [2], 70%.

As to `COc1ccc(-c2cc(CN3CCN(Cc4ccnc(-c5cc(OC)c(OC)c(OC)c5)c4)CC3)ccn2)cc1OC` [Example 26, N-[[2-(3,4-dimethoxyphenyl)pyridin-4-yl]methyl]-N′-[[2-(3,4,5-trimethoxyphenyl)pyridin-4-yl]methyl]piperazine difumarate], the inhibition at 1 µM reads like this: under setting [1], 75%; under setting [2], 69%.

As to `COc1cc(-c2cc(CN3CCN(CCc4ccc5c(OC)c(OC)c(OC)cc5c4)CC3)ccn2)cc(OC)c1OC` [Example 37, N-[2-(5,6,7-trimethoxynaphthalen-2-yl)ethyl]-N′-[[2-(3,4,5-trimethoxyphenyl)pyridin-4-yl]methyl]-piperazine dimaleate], the inhibition at 1 µM under setting [1] turned out to be 68% and the inhibition at 1 µM under setting [2] was determined as 56%.

Consider `COc1cc(-c2cc(CN3CCN(Cc4ccc5c(OC)c(OC)c(OC)cc5c4)CC3)ccn2)cc(OC)c1OC` [Example 38, N-[(5,6,7-trimethoxynaphthalen-2-yl)methyl]-N′-[[2-(3,4,5-trimethoxyphenyl)pyridin-4-yl]methyl]-piperazine dimaleate], for which the inhibition at 1 µM under setting [1] amounted to 59% and the inhibition at 1 µM under setting [2] came to 76%.

`COc1cc(/C=C/CCCN2CCN(Cc3ccnc(-c4cc(OC)c(OC)c(OC)c4)c3)CC2)cc(OC)c1OC` [Example 40, N-[(E)-5-(3,4,5-trimethoxyphenyl)-4-pentenyl-]-N′-[[2-(3,4,5-trimethoxyphenyl)pyridin-4-yl]methyl]piperazine difumarate]: the inhibition at 1 µM stood at 44% under setting [1] and 55% under setting [2].

In the case of `COc1cc(/C=C/CCCN2CCCN(Cc3ccnc(-c4cc(OC)c(OC)c(OC)c4)c3)CC2)cc(OC)c1OC` [Example 41, N-[(E)-5-(3,4,5-trimethoxyphenyl)-4-pentenyl]-N′-[[2-(3,4,5-trimethoxyphenyl)pyridin-4-yl]methyl]homopiperazine difumarate], the inhibition at 1 µM by setting is: under setting [1], 56%; under setting [2], 67%.

In the case of `COc1cc(-c2cc(CN3CCN(CCC/C=C/c4ccc(F)cc4)CC3)ccn2)cc(OC)c1OC` [Example 42, N-[(E)-5-(4-fluorophenyl)-4-pentenyl]-N′-[[2-(3,4,5-trimethoxyphenyl)pyridin-4-yl]methyl]piperazine difumarate], the inhibition at 1 µM reads like this: under setting [1], 54%; under setting [2], 56%.

Take `COc1cc(-c2cccc(C(=O)N3CCN(Cc4ccnc(-c5cc(OC)c(OC)c(OC)c5)c4)CC3)c2)cc(OC)c1OC` [Example 56, N-[3-(3,4,5-trimethoxyphenyl)benzoyl]-N′-[[2-(3,4,5-trimethoxyphenyl)pyridin-4-yl]methyl]piperazine]: the inhibition at 1 µM was 76% under setting [1] and 52% under setting [2].
